Tested on: AMPAR subunits (GluA1, GluA1/2, GluA2, and GluA2/3)
Experiment: Whole-cell patch-clamp recordings, statements over all tested AMPAR subunits
Type: cell-based
Settings: for reduction in τw des: across all examined subunits; for increase in τw deact / decrease in AMPAR subunit activity (inhibition of the whole-cell current): all tested subunits; for increase in τw deact: 10 mM glutamate for 1 ms; for decrease in AMPAR subunit activity (inhibition of the whole-cell current): 10 mM glutamate, 500 ms protocol
Method: The effect of five TC compounds on whole-cell currents of four AMPAR subunits (GluA1, GluA1/2, GluA2, and GluA2/3) was investigated using transfected HEK293T cells. Each compound was applied separately to each subunit, with experiments conducted on 8–10 cells per condition to ensure reproducibility. […] At a glutamate concentration of 10 mM and a 500 ms protocol, approximately 95% of AMPAR channels were open. The A/AI ratio was calculated to compare the results, where A represents normalized current readings and AI indicates the inhibited current following TC compound exposure. […] Following closely, TC-1 inhibited the tested subunits by 5-fold.
A thorough investigation was performed to assess the neuroprotective potential of the TC compounds. The influence of the five TC compounds on the desensitization traces is seen in Figure 4, namely in panels b, d, f, and h. TC-2 caused a substantial reduction in τw des in all receptor subunits, with decreases ranging from 2 to 3 times.
In addition, an evaluation was conducted on the deactivation rates (τw deact) of all the examined chemicals to investigate their impact on the kinetics of deactivation. The chemicals were assessed for their effect on the deactivation kinetics of AMPAR subunits by briefly administering 10 mM glutamate for 1 ms to begin currents. This experimental setup allowed for the observation of τw deact under controlled conditions. […] TC-5 induced an approximately 2-fold increase in τw deact across all four tested subunits. […] These findings highlight the differential impact of TC compounds on deactivation kinetics across AMPAR subunits, shedding light on their potential neuroprotective mechanisms.
The flip isoform was uniformly employed across all AMPAR subunits in this study. These subunits were subcloned into the pRK vector and expressed in Human Embryonic kidney cells sourced (Sigma, München, Germany). HEK293T cells were grown in Dulbecco Modified Eagle Medium (DMEM) (Sigma, München, Germany) containing 10% FBS (fetal bovine serum), 0.1 mg/mL streptomycin, and 1 mM sodium pyruvate (Biological Industries; Beit-Haemek, Israel). HEK293T cells were incubated at 37 °C and 5% CO2 was supplemented to the medium. It was subcultured twice a week until cells reached pass #20. The transfection reagent used was either jetPRIME (Polyplus: New York, NY, USA) or Lipofectamine 2000 (Invitrogen; San Diego, CA, USA). Cells were kept for 36 h. after transfection in 12-well plates. Then, they were replated on coverslips coated with Laminin (1 mg/mL; Sigma, Germany) for electrophysiology recordings. Cells were then seeded in Petri dishes in DMEM supplemented with 10% fetal calf serum and antibiotics and maintained in a humidified incubator at 37 °C and 5% CO2. Highly fluorescent cells were identified and selected for recording post-transfection.
HEK293T cells were recorded for 36–48 h, at a temperature of 22 °C, with a membrane potential of −60 mV. HEK293T cells were recorded 36–48 h after transfection using IPA (Integrated Patch Amplifier) via the […], at a temperature of 22 °C, with a membrane potential of −60 mV. SutterPatch Software v. 1.1.1 (Sutter Instruments, Novato, CA, USA) was used to digitize membrane currents for a short period. The sampling frequency was set to 10 kHz, and the low-pass filter was set to 2 kHz. Borosilicate glass was used to fabricate the patch electrodes with a resistance of 2–4 MΩ. The extracellular solution contained the following (values are in mM): 150 NaCl, 2.8 KCl, 0.5 MgCl2, 2 CaCl2, and 10 HEPES, adjusted to pH 7.4 with NaOH. The pipette solution contained the following (values are in mM): 110 CsF, 30 CsCl, 4 NaCl, 0.5 CaCl2, 10 […], and 10 HEPES, adjusted to pH 7.2 with CsOH. Using double barrel glass (theta tube), glutamate and the solutions of choice were rapidly administered, and the theta tube was mounted on a high-speed piezo solution switcher (Automate Scientific, Berkeley, CA, USA). […]

Row | SMILES | reduction in τw des | increase in τw deact | decrease in AMPAR subunit activity (inhibition of the whole-cell current) [fold]
1 | COc1ccc(-c2nc(C(=O)Nc3ccc(OC)c(OC)c3)cs2)cc1 [TC-1] | roughly twofold | around 2 fold | 5
2 | COc1ccc(-c2nc(C(=O)Nc3ccccc3)cs2)cc1 [TC-3] | little effect | weaker effects | ~3
3 | COc1ccc(-c2nc(C(=O)Nc3ccc(C(C)(C)C)cc3)cs2)cc1 [TC-4] | little effect | weaker effects | ~2.5

From paper PMC11243149, “Assessing the Effects of Thiazole-Carboxamide Derivatives on the Biophysical Properties of AMPA Receptor Complexes as a Potential Neuroprotective Agent” (Molecules, 2024)
